Test results published in PubChem BioAssay (NCI).
“And” between values parts separate entries of the source, which are not always exact repeats. Equal entries are not always repeated.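 Interpolation was linear, between the two tested concentrations surrounding the appropriate level; five concentrations were tested over 48 hours in 96-well plates. GI50 is the concentration that inhibits growth by half. The concentration for full growth arrest is given as TGI.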

Tests used:
Experiment in all cases: NCI-60 cell line screen, 48 h
BT-549 breast = tested on: BT-549 breast
MOLT-4 leukemia = tested on: MOLT-4 leukemia
MALME-3M melanoma = tested on: MALME-3M melanoma
OVCAR-3 ovarian = tested on: OVCAR-3 ovarian
OVCAR-8 ovarian = tested on: OVCAR-8 ovarian
SR leukemia = tested on: SR leukemia
A549 NSCLC = tested on: A549 NSCLC
LOX IMVI melanoma = tested on: LOX IMVI melanoma
DU-145 prostate = tested on: DU-145 prostate
HCT-116 colon = tested on: HCT-116 colon

SMILES	TGI (BT-549 breast)	TGI (MOLT-4 leukemia)	TGI (MALME-3M melanoma)	TGI (OVCAR-3 ovarian)	TGI (OVCAR-8 ovarian)	TGI (SR leukemia)	TGI (A549 NSCLC)	TGI (LOX IMVI melanoma)	TGI (DU-145 prostate)	TGI (HCT-116 colon)	GI50 (BT-549 breast)	GI50 (MOLT-4 leukemia)	GI50 (MALME-3M melanoma)	GI50 (OVCAR-3 ovarian)	GI50 (OVCAR-8 ovarian)	GI50 (SR leukemia)	GI50 (A549 NSCLC)	GI50 (LOX IMVI melanoma)	GI50 (DU-145 prostate)	GI50 (HCT-116 colon)
COc1ccc2c(c1)CC[C@@H]1[C@@H]2CC[C@]2(C)/C(=N/OCCN3CCCCC3)CC[C@@H]12	28.7 µM	8.37 µM	4.89 µM	15 µM	23.1 µM	6.29 µM	19.8 µM	3.8 µM	14.7 µM	5.67 µM										
Brc1ccc2c(c1)C1=C(CO2)Cc2ccccc2O1	33 µM	66.1 µM	38.2 µM	31.8 µM	47.6 µM	> 100 µM	48 µM	31.1 µM	38.6 µM	29.9 µM										
CC1=C(N2CC2)C(=O)c2nc3n(c2C1=O)CCC3O (configuration not stated)	0.0377 µM	21.1 µM	0.33 µM	0.763 µM	0.688 µM	35.6 µM	1.49 µM	1.92 µM	0.0717 µM	1.52 µM										
CN(C)Cc1cc(C(=O)/C=C/c2ccc(/C=C/C(=O)c3cc(CN(C)C)c(O)c(CN(C)C)c3)cc2)cc(CN(C)C)c1O	60.2 µM	68.6 µM	> 100 µM	> 100 µM	> 100 µM	> 100 µM	> 100 µM	26.5 µM	> 100 µM	34 µM										
COc1cc(C2c3cc4c(cc3OC(N3CCOCC3)C2C)OCO4)cc(OC)c1O (configuration not stated)	60.6 µM	> 100 µM	16.2 µM	> 34 µM	> 56.7 µM	> 35.1 µM	> 59.9 µM	> 100 µM	> 100 µM	11.4 µM										
COc1ccc(-c2cn3ccnc3c(-c3ccc4ncn(C5CCCCC5)c4c3)n2)cc1	3.91 µM	> 100 µM	> 100 µM	> 100 µM	> 100 µM	> 100 µM	> 100 µM	> 100 µM	> 100 µM	4.06 µM	0.41 µM	2.66 µM	43.1 µM	0.411 µM	3.16 µM	0.89 µM	1.83 µM	0.74 µM	1.07 µM	0.399 µM
CN(C)CCOc1ccc(-c2c(Oc3ccc(Cl)cc3)c(=O)oc3ccccc23)cc1	28.3 µM	> 41.8 µM	25.3 µM	34.3 µM	> 42.8 µM	> 30.6 µM	> 32.5 µM	> 35.7 µM	45.5 µM	> 32.9 µM										
O=C(CSC1=NCCN1)c1ccccc1	> 100 µM	> 100 µM	> 100 µM	> 100 µM	> 100 µM	> 100 µM	> 100 µM	> 100 µM	> 100 µM	> 100 µM										
Nc1cc(CO)cc(Nc2c3ccccc3nc3occc23)c1	81.6 µM	50.1 µM	> 100 µM	> 100 µM	> 100 µM	27.3 µM	> 100 µM	> 100 µM	> 100 µM	73.7 µM										
COc1cc2c(cc1OCCCC(=O)Nc1cc(C(=O)Nc3cc(C(=O)NCCCN(C)C)n(C)n3)n(C)n1)N=CC1CCCN1C2=O (configuration not stated)	26.5 µM	18.9 µM	31.5 µM	33 µM	53.2 µM	26.7 µM	> 100 µM	57 µM	32.2 µM	34 µM										
COc1ccc2nc3c([N+](=O)[O-])ccc4c3c(c2c1)NCCN4C	11.4 µM	27 µM	2.6 µM	5.62 µM	14.9 µM	> 100 µM	2.57 µM	4.71 µM	6.92 µM	2.88 µM										
COc1nc2c(c(=O)n1C)N[C@@H]1[C@@H](O)[C@H](O)CO[C@@H]1N2	> 100 µM	> 100 µM	> 100 µM	> 100 µM	> 100 µM	> 100 µM	> 100 µM	> 100 µM	> 100 µM	> 100 µM										
CC1CC[C@]2(C(=O)O)CCC3(C)C(=C2[C@H]1C)C=CC1[C@@]2(C)CC[C@H](O)C(C)(C)C2CC[C@]13C (some centres not stated)	> 100 µM	> 100 µM	73.2 µM	73.1 µM	> 100 µM	66.1 µM	62.6 µM	> 100 µM	42.4 µM	64.1 µM										
CCCCCc1c(CCCC)c(=O)[nH]c2cc(CNCC(OC)OC)ccc12	28 µM	20.6 µM	7.83 µM	32.3 µM	32 µM	17.3 µM	25.7 µM	18.8 µM	28 µM	18.9 µM										
COC(=O)C(Cc1ccccc1)NC(=O)CNC(=O)CSc1nnc(COc2ccc(Cl)cc2)n1-c1ccccc1 (configuration not stated)	35.6 µM	> 24.2 µM	34.5 µM	30.9 µM	27.4 µM	> 20.4 µM	34.5 µM	13.8 µM	33 µM	33 µM										
COC(=O)/C=C1/OC(c2ccccc2)=C(Cl)C1=O	40.3 µM	18.1 µM	36 µM	33.8 µM	48.7 µM	17.9 µM	69.4 µM	26.8 µM	> 76.2 µM	26.3 µM										

SMILES	TGI (BT-549 breast)	TGI (MOLT-4 leukemia)	TGI (MALME-3M melanoma)	TGI (OVCAR-3 ovarian)	TGI (OVCAR-8 ovarian)	TGI (SR leukemia)	TGI (A549 NSCLC)	TGI (LOX IMVI melanoma)	TGI (DU-145 prostate)	TGI (HCT-116 colon)	GI50 (BT-549 breast)	GI50 (MOLT-4 leukemia)	GI50 (MALME-3M melanoma)	GI50 (OVCAR-3 ovarian)	GI50 (OVCAR-8 ovarian)	GI50 (SR leukemia)	GI50 (A549 NSCLC)	GI50 (LOX IMVI melanoma)	GI50 (DU-145 prostate)	GI50 (HCT-116 colon)
CCCCNC(=S)Nc1nc(C(=O)NNS(=O)(=O)c2ccccc2)cs1	70.8 µM	> 100 µM	> 100 µM	54.2 µM	> 100 µM	> 100 µM	> 100 µM	39.2 µM	> 100 µM	69.5 µM										
C/C(=N/O)c1cccc(Nc2nc3ccccc3c3[nH]c4ccccc4c23)c1	34.7 µM	3.55 µM	13.8 µM	5.1 µM	> 24.4 µM	3.85 µM	8.8 µM	6.06 µM	5.59 µM	4.77 µM										
NC1CCC(c2cc3ccccc3s2)(N2CCCCC2)CC1 (configuration not stated)	3.08 µM	3.25 µM	7.79 µM	2.81 µM	3.67 µM	3.38 µM	8.46 µM	2.84 µM	16.4 µM	3.05 µM										
O=[N+]([O-])C(=C(NCc1ccccc1)NCc1ccccc1)C(Cl)=C(Cl)Cl	> 100 µM	52 µM	55.7 µM	69.2 µM	> 100 µM	57.8 µM	> 100 µM	37.8 µM	> 100 µM	> 100 µM										
COc1ccc(CNc2nc3ccccc3nc2-c2cccs2)cc1	95.4 µM	45.4 µM	> 100 µM	> 100 µM	> 100 µM	> 100 µM	> 100 µM	43.7 µM	> 100 µM	> 100 µM										
Fc1cccc2nc(-c3ccccc3)cc(OCc3ccccc3)c12	> 100 µM	> 100 µM	> 100 µM	> 100 µM	> 100 µM	> 100 µM	> 100 µM	> 100 µM	> 100 µM	> 100 µM										
CC1(C)C2CCC1C(=O)C(C=O)C2 (configuration not stated)	> 100 µM	> 100 µM	> 100 µM	> 100 µM	> 100 µM	79.6 µM	> 100 µM	> 100 µM	> 100 µM	> 100 µM										
CN(C)Cc1cc(N=Nc2ccc(Cl)c(Cl)c2)ccc1O	27 µM	24.4 µM	29.6 µM	19.2 µM	25.5 µM	28.6 µM	27.5 µM	17.9 µM	17.6 µM	29.8 µM										
CC1=Nn2c(nc3sc4c(c3c2=O)CCCC4)SC1	> 100 µM	> 94.6 µM	> 100 µM	> 100 µM	> 100 µM	> 100 µM	> 100 µM	53.7 µM	> 100 µM	> 100 µM										
COC1C(O)=C2C(=O)OC(C)(O)/C=C/C=C\C=C/C=C/C(c3ccccc3)NC(=O)/C=C/C=C/C=C/C=C/C2(C)C1O (configuration not stated)	0.168 µM		0.16 µM	0.218 µM and 0.349 µM	0.0241 µM and 0.146 µM		0.0253 µM	0.16 µM and 0.234 µM	0.0769 µM and 0.123 µM	0.0724 µM and 0.0739 µM		0.0697 µM		0.114 µM		0.0053 µM and 0.0269 µM		0.0264 µM		
COc1cccc(C2c3cc4c(cc3OC(N3CCOCC3)C2C)OCO4)c1O (configuration not stated)	76.1 µM	42.2 µM	> 78.6 µM	30.8 µM	60.1 µM	30.2 µM	66.5 µM	25 µM	26.6 µM	16.6 µM										
O=C(CSc1nc2ccc(I)cc2c(=O)n1Cc1ccccc1)Nc1ccc(Br)cc1	> 100 µM	> 100 µM	61.6 µM	> 100 µM	36.2 µM	27.4 µM	> 100 µM	> 100 µM	> 100 µM	> 100 µM										
Cn1c(N/N=C/c2ccc(Cl)cc2)nc(-c2ccc(Cl)cc2)c(C#N)c1=O	67.5 µM	> 100 µM	91.7 µM	32.7 µM	44.6 µM	> 100 µM	39.2 µM	57.6 µM	46.1 µM	26.3 µM										
c1ccc(N=NNNc2ccc(-c3nc4ccccc4[nH]3)cc2)cc1	76.8 µM	36.8 µM	77.3 µM	38.1 µM	> 100 µM	> 100 µM	> 100 µM	> 100 µM	> 100 µM	> 100 µM										
CC(=O)O[C@H]1/C(=C/c2ccc(N(C)C)cc2)C[C@H]2[C@@H]3CC=C4C[C@@H](N5CCCC5)CC[C@]4(C)[C@H]3CC[C@]12C	> 100 µM	> 100 µM	> 100 µM	> 100 µM	> 100 µM	> 100 µM	> 100 µM	> 100 µM	> 100 µM	> 100 µM										
